Experimental data reported in the OPERA property sets (Mansouri et al. 2018).
In brackets after ≈: the same amount, converted by molar mass.

Conditions: not given

Structure (SMILES)	logP	solubility [mM]
O=C1CCCC1	0.38	–
COc1ccc(C(OC(C)=O)C(Cl)(Cl)Cl)cc1 (stereo not given)	3.72	–
CCCCCCC	4.66	–
CCCCC(OC(Cc1ccccc1)C(=O)N1CCC(OCOC)CC1)C(=O)NC(CC1CCCCC1)C(O)CC(C(=O)NCCNc1n[nH]c(N)n1)C(C)C (stereo not given)	4	–
NS(=O)(=O)c1cc2c(cc1Cl)NC(C1CC3C=CC1C3)NS2(=O)=O (stereo not given)	1.95	–
CCOC(=O)n1c(-c2cscn2)nc2ccccc21	2.51	–
Clc1cc(Cl)c2cc(Cl)cc(Cl)c2c1	6.19	–
COc1ccc(C(=O)CCCC(=O)O)cc1Cl	2.17	–
COc1ccccc1OCC(O)CO (stereo not given)	1.39	–
ClC1=C(Cl)C2(Cl)C3C(Cl)C=CC3C1(Cl)C2(Cl)Cl (stereo not given)	6.1	–
O=C(O)CC[Se]Cc1ccccc1	1.67	–
Cn1cnc2c(N)ncnc21	-0.03	–
CC(=O)OC1CCC(C(C)(C)C)CC1 (stereo not given)	4.8	–
CCN(O)CC	-0.17	–
CN1CCN(Cc2cccc(COc3ccccc3)c2)CC1	3.05	–
C=CCOc1ccccc1OCC(CNC(C)C)OC(=O)C1CC1 (stereo not given)	3.01	–
Nc1nc(=O)n([C@H]2CC[C@@H](CO)O2)cc1F	-1.09	–
ClC1=C(Cl)C2(Cl)C3CC=CC3C1(Cl)C2(Cl)Cl (stereo not given)	5.57	–
CCCCC(=O)Oc1ccc(CC(N)C(=O)O)cc1 (stereo not given)	0.07	–
CCCC(C)C=O (stereo not given)	–	41.9 (≈ 4.2 mg/mL)
CCCCCCN1CC(C(=O)O)CC1=O (stereo not given)	1.6	–
CC(C)CN(CC(C)C)N=O	2.34	–
Clc1ccc(-c2ccccc2Cl)cc1Cl	5.87	–
O=C(c1ccccc1)n1ncc2c(=O)[nH]cnc21	1.2	–
CC(C)(C)NCC(O)c1cc(O)cc(O)c1 (stereo not given)	0.9	–

Structure (SMILES)	logP	solubility [mM]
Cc1ccccc1NCc1cnc2nc(N)nc(N)c2c1C	1.98	–
OC(Cn1cncn1)(c1ccc(F)cc1)c1ccccc1F (stereo not given)	2.29	–
CCCC[N+](C)(CCCC)CCCC.[I-]	0.26	–
C=CC(N)CCC(=O)O (stereo not given)	-2.16	–
CN(C)c1ccc(C=NNC(=N)N)cc1	0.28	–
c1ccc(Cn2cncn2)cc1	0.92	–
O=C1CC[C@@]2(O)[C@H]3Cc4ccc(O)c5c4[C@@]2(CCN3CC2CC2)[C@H]1O5	1.92	–
ClC=C1C2CC(C(Cl)C2(Cl)Cl)C1(C(Cl)Cl)C(Cl)Cl (stereo not given)	5.49	–
CCN(CC)CCCC(C)N=c1cc2n(-c3ccc(Cl)cc3)c3ccccc3nc-2cc1Nc1ccc(Cl)cc1 (stereo not given)	7.92	–
NC(=O)N=NC(N)=O	-1.7	–
Sc1nc2ccccc2s1	2.42	–
COc1cc([N+](=O)[O-])c2ncccc2c1	1.87	–
COC(=O)c1c[nH]c2ccccc12	2.57	–
CC1(CCl)C2CC(Cl)(Cl)C1(C(Cl)Cl)CC2(Cl)Cl (stereo not given)	5.49	–
COc1cc(CC(=O)O)ccc1O	0.33	–
[O-][n+]1ccc(Cl)c2ccc(Cl)cc21	1.85	–
Cc1cc(C)c(NC(=O)CN(CC(=O)O)CC(=O)O)c(C)c1Br	0.11	–
Clc1cc(Cl)c(Oc2ccccc2)cc1Cl	5.44	–
COC(=O)C(c1ccccc1)C(C)C (stereo not given)	3.33	–
COc1sc(C(=O)Nc2nn[nH]n2)c(OC(C)C)c1Br	1.35	–
Cc1cn([C@H]2C[C@H](N=[N+]=[N-])[C@@H](CO)O2)c(=O)[nH]c1=S	1.07	–
O=[N+]([O-])c1ccc2c(c1)CCN2	2.07	–
COc1ccc(OCCN(C)C)cc1	1.23	–
Cc1ccc(OCCN(C)C)cc1	2.17	–
CCOC1OC2OC3(C)CC(OC4OC(C(=O)O)C(O)C(O)C4O)C4C(C)CCC(C1C)C24OO3 (stereo not given)	1.73	–

Structure (SMILES)	logP	solubility [mM]
O=C(O)CNCP(=O)(O)O	-3.4	–
OC(CN1C2CCOCC21)Cn1ccnc1 (stereo not given)	0.07	–
Clc1ccc(Nc2cc3nc4ccccc4n(-c4ccc(Cl)cc4)c-3cc2=NCCCN2CCCC2)cc1	7.17	–
O=C(O)c1cc[n+]([O-])cc1	–	79.1 (≈ 11 mg/mL)
C=CCOc1ccccc1OCC(CNC(C)C)OC(=O)C=CC (stereo not given)	3.65	–
COC(=O)c1ccccc1C(=O)OC	1.6	–
Cc1ncc(CO)c(C=O)c1O.Cl	–	2460
CCCCC[C@H](O)/C=C/[C@H]1[C@H](O)CC(=O)[C@@H]1CCCCCCC(=O)O	3.2	–
NC(=O)CCCN=C(c1ccc(Cl)cc1)c1cc(F)ccc1O	3.06	–
COc1ccc(N)c(S(=O)(=O)O)c1	-3.49	–
Nc1cccc(Cl)c1	–	42.3 (≈ 5.4 mg/mL)
c1ccc2c(c1)-c1cccc3c1c-2cc1ccccc13	5.78	–
Cc1cc(OCCN(C)C)c(C(C)C)cc1O	2.93	–
CN(C)C(=O)Nc1ccc(Oc2ccc(Cl)cc2)cc1	3.7	–
O=C(NCCN1CCC(n2c(=O)[nH]c3cc(Cl)ccc32)CC1)c1ccc(F)cc1	4.63	–
Clc1ccc(Cl)c(-c2cc(Cl)c(Cl)cc2Cl)c1	5.68	–
CCOC(=O)[C@@H](N)Cc1ccc(O)cc1	0.72	–
Cc1c(Cl)cccc1[N+](=O)[O-]	3.09	–
c1ccc2c(c1)oc1ccccc12	–	0.0184 (≈ 0.0031 mg/mL)
O=C(OC1C2C=CC1C=C2)c1ccccc1 (stereo not given)	3.03	–
CCCCC1CO1 (stereo not given)	1.95	–
Cc1cc(Cl)ccc1OC(C)C(=O)O (stereo not given)	3.13	–
CCCCNC(=O)n1cc(F)c(=O)[nH]c1=O	–	3.58 (≈ 0.82 mg/mL)
S=C1NCCN1	-0.66	–
Cc1ccc(S(=O)(=O)O)cc1	–	3600 (≈ 620 mg/mL)

Structure (SMILES)	logP	solubility [mM]
Cc1cccc(C(C)C)c1	–	0.317 (≈ 0.0425 mg/mL)
N#CCCCCC#N	-0.32	–
CC(C)Oc1c(Br)c(Br)n(C)c1C(=O)Nc1nn[nH]n1	2.52	–
CCON=C(CC)C1=C(O)CC(c2c(C)cc(C)cc2C)CC1=O (stereo not given)	4.46	–
C=CC(=O)NCCc1cnc[nH]1	-0.21	–
CCCC(CCC)=NNC(=N)N	1.73	–
CCCCCCCC(=O)[O-].[Na+]	-1.38	–
N#CC(C#N)=Cc1ccc(Cl)o1	2.17	–
Cc1nc2ccc([N+](=O)[O-])cc2[nH]1	1.94	–
C=C(C)C1CC=C(C)CC1 (stereo not given)	4.57	–
c1ccc2c(c1)ccc1cc3ccc4ccccc4c3cc12	6.54	–
O=c1ccn(C2OC(CO)CC2F)c(=O)[nH]1 (stereo not given)	-0.87	–
CCOCCn1cnc2c(=N)n(C)c(=O)[nH]c21	-0.4	–
OCCOc1cccc2ccccc12	2.5	–
Cc1ccccc1CCN	1.6	–
CN1CCN(c2c(F)cc3c(=O)c(C(=O)O)cn(CCF)c3c2F)CC1	0.24	–
NS(=O)(=O)c1nn2c(=Nc3ccc(F)cc3)snc2s1	2.81	–
Nc1ccc2c(c1)Cc1cc([N+](=O)[O-])ccc1-2	3.06	–
O=C1c2ccccc2C(=O)c2c(O)cccc21	3.52	–
N#CC(C#N)=Cc1ccco1	1.4	–
CCN1CCC(CNC(=O)c2cc(S(=O)(=O)CC)ccc2OC)C1 (stereo not given)	1.31	–
O=P(N1CCCC1)(N1CCCC1)N1CCCC1	1.67	–
CC(C)=CC1C(C(=O)OCc2coc(Cc3ccccc3)c2)C1(C)C (stereo not given)	6.14	–

Same assay, conditions: 20 °C

Structure (SMILES)	solubility [mM]
CC(C)(CO)[N+](=O)[O-]	29400 (≈ 3500 mg/mL)
CCN(C(=O)n1nnn(-c2ccccc2Cl)c1=O)C1CCCCC1	0.00658 (≈ 0.0023 mg/mL)
CCC(CC)C(=O)O	155 (≈ 18 mg/mL)
C=COC	258 (≈ 15 mg/mL)
CC(C)OC(=O)c1ccccc1C(=O)OC(C)C	1.33 (≈ 0.332 mg/mL)
CCNc1nc(NCC)nc(OC)n1	16.2 (≈ 3.2 mg/mL)
N#CCCCCC#N	740 (≈ 80 mg/mL)
CC1CCC(O)CC1 (stereo not given)	131 (≈ 15 mg/mL)

Same assay, conditions: 22.0 °C

Structure (SMILES)	log10 OH rate constant (cm³/molecule/s)
CC(C)CO[N+](=O)[O-]	-12

Same assay, conditions: 23.0 °C

Structure (SMILES)	log10 OH rate constant (cm³/molecule/s)
CC/C=C\CCO	-9.96
C=C1CCC=C(C)CC[C@@H]2[C@@H]1CC2(C)C	-9.7

Same assay, conditions: 24 °C

Structure (SMILES)	solubility [mM]
Sc1nc2ccccc2s1	0.658 (≈ 0.11 mg/mL)

Same assay, conditions: 25 °C

Structure (SMILES)	solubility [mM]
CCCCN(CC)C(=O)SCCC	0.492 (≈ 0.1 mg/mL)
c1ccc2nc3ccccc3cc2c1	0.214 (≈ 0.0384 mg/mL)
COc1ccccc1OCC(O)CO (stereo not given)	252 (≈ 50 mg/mL)
ClC1=C(Cl)C2(Cl)C3C(Cl)C=CC3C1(Cl)C2(Cl)Cl (stereo not given)	0.000482 (≈ 0.00018 mg/mL)
CCCCOC(=O)COc1ccc(Cl)cc1Cl	0.166 (≈ 0.046 mg/mL)
COC(CN(C)C(=O)Nc1nnc(C(C)(C)C)s1)OC	13.6 (≈ 4.1 mg/mL)
O=[N+]([O-])c1ccc2ccccc2c1	0.0534 (≈ 0.00924 mg/mL)
CCC(Cl)CC	2.34 (≈ 0.249 mg/mL)
CCOC(=O)N(C)N=O	280 (≈ 37 mg/mL)
ClCOCCl	191 (≈ 22 mg/mL)
O=C1OC(=O)c2ccccc21	41.9 (≈ 6.2 mg/mL)
ClC1=C(Cl)C2(Cl)C3CCC4C(CCC3C1(Cl)C2(Cl)Cl)C1(Cl)C(Cl)=C(Cl)C4(Cl)C1(Cl)Cl (stereo not given)	6.73e-11 (≈ 4.4e-11 mg/mL)
CCCCC(CC)COC(=O)c1ccccc1C(=O)OCC(CC)CCCC (stereo not given)	0.000108 (≈ 4.2e-05 mg/mL)
COc1c(Cl)ccc(Cl)c1C(=O)O	27.7 (≈ 6.12 mg/mL)
FC(Cl)C(F)(F)F (stereo not given)	11 (≈ 1.5 mg/mL)
COC(=O)c1ccccc1C(=O)OC	20.6 (≈ 4 mg/mL)
CNC(=O)O/N=C/C(C)(C)S(C)=O (stereo not given)	136 (≈ 28 mg/mL)

Structure (SMILES)	solubility [mM]
CCC(CO)(CO)COCC(CC)(CO)CO	104 (≈ 26 mg/mL)
O=C(O)c1ccc[n+]([O-])c1	50.3 (≈ 7 mg/mL)
CC1CO1 (stereo not given)	10200 (≈ 590 mg/mL)
O=[N+]([O-])c1ccccc1	17 (≈ 2.09 mg/mL)
Nc1cc(Cl)cc(C(=O)O)c1Cl	3.4 (≈ 0.7 mg/mL)
C[C@]12C[C@H](O)[C@H]3[C@@H](CCC4=CC(=O)CC[C@@]43C)[C@@H]1CC[C@@H]2C(=O)CO	0.574 (≈ 0.199 mg/mL)
CC(C)CO[N+](=O)[O-]	11.2 (≈ 1.33 mg/mL)
CC(C)(C)Br	4.38 (≈ 0.6 mg/mL)
O=C([O-])CF.[Na+]	11100
C=C(C)C1CC=C(C)CC1 (stereo not given)	0.0777 (≈ 0.0106 mg/mL)
c1ccc2c(c1)ccc1cc3ccc4ccccc4c3cc12	3.7e-06 (≈ 1.03e-06 mg/mL)
CCCCC(CC)CO (stereo not given)	6.02 (≈ 0.785 mg/mL)
COc1c(O)c(Cl)c(Cl)c(Cl)c1Cl	0.016 (≈ 0.0042 mg/mL)
O=C1c2ccccc2C(=O)c2c(O)cccc21	0.0379 (≈ 0.0085 mg/mL)
Nc1ccc2c(c1)C(=O)c1ccccc1C2=O	0.00073 (≈ 0.000163 mg/mL)
CCN(CC)c1ccccc1	0.938 (≈ 0.14 mg/mL)

Same assay, conditions: 25.0 °C

Structure (SMILES)	log10 OH rate constant (cm³/molecule/s)
COCCOC	-10.6
O=CC(F)(Cl)Cl	-11.9
CC(C)(C)Cl	-12.4
Oc1ccc2ccccc2c1	-9.77
COC(F)(C(F)(F)F)C(F)(F)F	-13.8
CSC(=O)N(C)C	-10.9
c1ccc(Nc2ccccc2)cc1	-9.71
C=CC(C)(C)O	-10.2
FC(F)(F)CC(F)(F)F	-15
CCNC(=O)OC	-11
c1ccc2c(c1)oc1ccccc12	-11.4
COC(=O)CCCC(=O)OC	-11.5
C1CC2CCCC2C1 (stereo not given)	-11
CCCC=O	-10.6

Same assay, conditions: 27.0 °C

Structure (SMILES)	log10 OH rate constant (cm³/molecule/s)
CCC(=O)N(C)C	-10.7
Cc1ccco1	-10.2
CC1=CC(=O)C=CC1=O	-10.6
